Experimental data reported in US11433012B2, “Peptides for increasing melanin in melanocytes” (Conopco, Inc., priority 2017, dated 2022).
Peptide text beside a SMILES is read from it.

Columns and labels:
[1] = target: T1, Tyrosinase (Homo sapiens, UniProt P14679); assay: Tyrosinase assay; format: biochemical; conditions: 0.25 μM
T1 sequence (P14679 19-529): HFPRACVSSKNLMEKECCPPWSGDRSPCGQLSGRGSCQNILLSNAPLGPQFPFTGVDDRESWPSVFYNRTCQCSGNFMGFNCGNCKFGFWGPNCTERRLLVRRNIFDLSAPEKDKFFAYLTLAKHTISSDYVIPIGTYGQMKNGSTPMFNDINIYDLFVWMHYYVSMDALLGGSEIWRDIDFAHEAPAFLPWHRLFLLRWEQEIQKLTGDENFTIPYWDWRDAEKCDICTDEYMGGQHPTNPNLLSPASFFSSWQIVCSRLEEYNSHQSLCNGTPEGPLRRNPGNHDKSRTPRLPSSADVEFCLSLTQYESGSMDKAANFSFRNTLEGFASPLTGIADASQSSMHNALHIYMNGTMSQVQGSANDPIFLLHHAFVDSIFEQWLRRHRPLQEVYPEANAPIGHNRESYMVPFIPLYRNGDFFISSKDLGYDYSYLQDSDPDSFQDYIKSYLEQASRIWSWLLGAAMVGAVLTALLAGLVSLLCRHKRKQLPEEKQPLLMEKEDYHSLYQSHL

[2] = tested on: Neonatal foreskin primary human epidermal melanocytes; assay: Melanin content assay (OD405 nm of cell lysate); format: cell-based; conditions: for % Melanin / OD405 nm / % Increase in Melanin / Normalized melanin content / Normalized melanin content at 0.25 µM: 72 hours; for Normalized melanin content at 0.25 µM: Homo sapiens, Melanocyte, read-out: Normalized melanin content, 100*(% Melanin Content)/(% Cellular viability); for Increase in melanin content of melanocytes (in words): data of Table 2
Method: (§1) All test compounds were purchased from SIGMA-ALDRICH as stocks of 10 mM in 100% DMSO. They were tested at various concentrations in cell culture (see below). Forskolin (SIGMA Cat. #F6886) and IBMX (SIGMA Cat. #I5879) were used as reference comparators, as they have been reported to increase melanin content. Neonatal foreskin primary human epidermal melanocytes were procured from Cascade Biologicals (labelled passage P0). Melanocytes were maintained in Medium 254CF (Cascade Cat. #M-254CF-500) supplemented with human melanocyte growth supplement (Cascade; Cat. #S-002-5), hereafter referred to as MGM. Cells were maintained at 37° C. in a humidified incubator with 5% CO2 atmosphere.
(§2) 50,000 cells were seeded in 24 well plate in MGM; after 24 hours, cultures were treated with various concentrations of the test materials and left undisturbed for a further period of 72 hours. Comparative vehicle controls of 0.25% (v/v) DMSO were also set up in parallel, simultaneously. At the end of the incubation period, cell viability was determined using the calcein method.
After calcein fluorescence readings were obtained, cells were drained and added fresh 125 μl of 1N NaOH (in 10% DMSO) per well. Cells were lysed by resuspension and incubation (60° C./1 hour). Then this lysate was transferred to a fresh […] and measured OD405 nm in a TECAN M1000 plate reader (estimate of relative melanin content).
(§3) Calcein fluorescence values were ratio converted in 0 to 100 scale (% viability), with 100 representing the value of the 0.25% DMSO sample. % Melanin content was calculated as the ratio between OD405nm value of any sample to that of DMSO reference sample. Normalized melanin content value was then calculated as 100*(% Melanin Content)/(% Cellular viability).
The percentage Increase in melanin content was estimated as [(Normalized melanin content)−100]

[3] = tested on: Neonatal foreskin primary human epidermal melanocytes; assay: Cell viability by the calcein method; format: cell-based
Method: as §1, §2
Briefly, cell culture spent media was removed and cells washed once with 0.4 ml of 1×PBS—Ca—Mg solution. Fresh 1 μM calcein-AM was added (0.2 ml/well), including to control wells without cells. Plates were covered with aluminium foil and incubated for 30 minutes. at 37° C. in the regular CO2 incubator. Calcein fluorescence was then measured (λmax 490 nm and λmax 520 nm) in TECAN® M1000 Infinite series plate reader.
as §3

[4] = 0.25 μM, relative to DMSO control
[5] = 0.25 μM, normalized melanin content minus 100

Row | Structure (SMILES) | % increase in Tyrosinase activity [1] [%] | % Melanin [2, 4] [%] | OD405 nm ([2]; 0.25 μM, control 0.113) | % Increase in Melanin [2, 5] [%] | % Increase in Melanin ([2]; 3.125 μM) [%] | % Melanin ([2]; 3.125 μM) [%] | Normalized melanin content ([2]; 3.125 μM) | OD405 nm ([2]; 3.125 μM, control 0.165) | % Increase in Melanin ([2]; 12.5 μM) [%] | % Melanin ([2]; 12.5 μM) [%] | Normalized melanin content ([2]; 12.5 μM) | OD405 nm ([2]; 12.5 μM, control 0.165) | % Increase in Melanin ([2]; 25 μM) [%] | % Melanin ([2]; 25 μM) [%] | Normalized melanin content ([2]; 25 μM) | OD405 nm ([2]; 25 μM, control 0.165) | Normalized melanin content at 0.25 µM ([2]; 0.25 μM) [%] | % Viability ([3]; human, 72 h, 0.25 μM) [%] | % Viability ([3]; human, 72 h, 12.5 μM) [%] | % Viability ([3]; human, 72 h, 25 μM) [%] | other results
1 | O=C(N[C@@H](CO)C(=O)N[C@@H](Cc1ccc(O)cc1)C(=O)OCc1ccccc1)OCc1ccccc1 [Compound 1, Benzyl (2S)-2-[((2S)-2-{[(benzyloxy)carbonyl]amino}-3-hydroxypropanoyl)amino]-3-(4-hydroxyphenyl)propanoate.] (HELM PEPTIDE1{[O=C(OCc1ccccc1)[*:2]].S.Y.[c1ccc(CO[*:1])cc1]}$$$$V2.0) | 3.5 | 135.4 | 0.153 | 26.5 | 17.9 | 107.3 | 117.9 | 0.177 | 33.3 | 118.2 | 133.3 | 0.195 | 34.0 | 120.6 | 134.0 | 0.199 | 126 | 107 | 88.7 | 90.0 | % Increase in Melanin ([2]; 6.25 μM): 20.6%; % Melanin ([2]; 6.25 μM): 115.2%; Normalized melanin content ([2]; 6.25 μM): 120.6; OD405 nm ([2]; 6.25 μM, control 0.165): 0.190; % Viability ([3]; human, 72 h, 3.125 μM): 91.0%; % Viability ([3]; human, 72 h, 6.25 μM): 95.5%
2 | C=C[C@@]1(C)CC(=O)[C@]2(O)[C@@]3(C)[C@@H](O)CCC(C)(C)[C@@H]3[C@H](O)[C@H](OC(C)=O)[C@@]2(C)O1 [Forskolin, reference compound] |  |  |  |  |  |  |  |  |  |  |  |  |  |  |  |  |  |  |  |  | % Increase in Melanin ([2]; 2.5 μM): 16.6%; % Melanin ([2]; 2.5 μM): 111.5%; Normalized melanin content ([2]; 2.5 μM): 116.6; OD405 nm ([2]; 2.5 μM, control 0.165): 0.184; % Increase in Melanin ([2]; 5 μM): 29.2%; % Melanin ([2]; 5 μM): 122.5%; Normalized melanin content ([2]; 5 μM): 129.2; OD405 nm ([2]; 5 μM, control 0.165): 0.202; % Increase in Melanin ([2]; 10 μM): 36.7%; % Melanin ([2]; 10 μM): 123.7%; Normalized melanin content ([2]; 10 μM): 136.7; OD405 nm ([2]; 10 μM, control 0.165): 0.204; % Viability ([3]; 2.5 μM, 72 hours): 95.6%; % Viability ([3]; 5 μM, 72 hours): 94.8%; % Viability ([3]; 10 μM, 72 hours): 90.5%
3 | CC(C)Cn1c(=O)n(C)c(=O)c2[nH]cnc21 [IBMX, 3-isobutyl-1-methylxanthine, reference compound] |  |  |  |  |  |  |  |  | 16.6 | 116.7 | 116.6 | 0.193 | 24.8 | 118.8 | 124.8 | 0.196 |  |  | 100.1 | 95.2 | % Increase in Melanin ([2]; 50 μM): 28.2%; % Melanin ([2]; 50 μM): 116.7%; Normalized melanin content ([2]; 50 μM): 128.2; OD405 nm ([2]; 50 μM, control 0.165): 0.193; % Viability ([3]; human, 72 h, 50 μM): 91.0%

Second part, led by results:

Row | % increase in Tyrosinase activity [1] [%] | Structure (SMILES) | % Melanin [2, 4] [%] | OD405 nm ([2]; 0.25 μM, control 0.113) | % Increase in Melanin [2, 5] [%] | % Increase in Melanin ([2]; 3.125 μM) [%] | % Melanin ([2]; 3.125 μM) [%] | Normalized melanin content ([2]; 3.125 μM) | OD405 nm ([2]; 3.125 μM, control 0.165) | % Increase in Melanin ([2]; 12.5 μM) [%] | % Melanin ([2]; 12.5 μM) [%] | Normalized melanin content ([2]; 12.5 μM) | OD405 nm ([2]; 12.5 μM, control 0.165) | % Increase in Melanin ([2]; 25 μM) [%] | % Melanin ([2]; 25 μM) [%] | Normalized melanin content ([2]; 25 μM) | OD405 nm ([2]; 25 μM, control 0.165) | Normalized melanin content at 0.25 µM ([2]; 0.25 μM) [%] | % Viability ([3]; human, 72 h, 0.25 μM) [%] | % Viability ([3]; human, 72 h, 12.5 μM) [%] | % Viability ([3]; human, 72 h, 25 μM) [%] | other results
4 | 2.0 | CC(C)[C@H](NC(=O)OCc1ccccc1)C(=O)N[C@@H](Cc1ccc(O)cc1)C(N)=O [Compound 2, Benzyl (1S)-1-({[(1S)-2-amino-1-(4-hydroxybenzyl)-2-oxoethyl]amino}carbonyl)-2-methylpropylcarbamate] (HELM PEPTIDE1{[O=C(OCc1ccccc1)[*:2]].V.Y.[am]}$$$$V2.0) | 110.6 | 0.125 | 36.5 | 23.2 | 111.5 | 123.2 | 0.184 | 26.5 | 121.2 | 126.5 | 0.200 | 42.2 | 131.5 | 142.2 | 0.217 | 136 | 81 | 95.8 | 92.5 | % Increase in Melanin ([2]; 1.5 μM): 16.9%; % Melanin ([2]; 1.5 μM): 106.7%; Normalized melanin content ([2]; 1.5 μM): 116.9; OD405 nm ([2]; 1.5 μM, control 0.165): 0.176; % Increase in Melanin ([2]; 6.25 μM): 14.7%; % Melanin ([2]; 6.25 μM): 114.5%; Normalized melanin content ([2]; 6.25 μM): 114.7; OD405 nm ([2]; 6.25 μM, control 0.165): 0.189; % Increase in Melanin ([2]; 50 μM): 25.8%; % Melanin ([2]; 50 μM): 126.6%; Normalized melanin content ([2]; 50 μM): 125.8; OD405 nm ([2]; 50 μM, control 0.165): 0.209; Increase in melanin content of melanocytes (in words) [2]: substantial increase in melanin content; Extent of increase in melanin content versus reference molecules (in words) ([2]; data of Table 3): comparable to known standard reference molecules (Forskolin and IBMX); % Viability ([3]; human, 72 h, 1.5 μM): 91.3%; % Viability ([3]; human, 72 h, 3.125 μM): 90.5%; % Viability ([3]; human, 72 h, 6.25 μM): 99.8%; % Viability ([3]; human, 72 h, 50 μM): 100.6%
5 | 1.8 | CSCC[C@H](NC(=O)OCc1ccccc1)C(=O)N[C@@H](Cc1c[nH]c2ccccc12)C(=O)O [Compound 3, (2S)-2-{[(2S)-2-{[(benzyloxy)carbonyl]amino}-4-(methylthio)butanoyl]amino}-3-(1H-indol-3-yl)propanoic acid] (HELM PEPTIDE1{[O=C(OCc1ccccc1)[*:2]].M.W}$$$$V2.0) | 106.2 | 0.120 | 7.3 |  |  |  |  |  |  |  |  |  |  |  |  | 107 | 99 |  |  | Increase in melanin content of melanocytes (in words) [2]: not
6 | 0.8 | C[C@@H](O)[C@H](NC(=O)OCc1ccccc1)C(=O)N[C@@H](Cc1ccc(O)cc1)C(N)=O [Compound 4, Benzyl (1S,2R)-1-({[(1S)-2-amino-1-(4-hydroxybenzyl)-2-oxoethyl]amino}carbonyl)-2-hydroxypropylcarbamate.] (HELM PEPTIDE1{[O=C(OCc1ccccc1)[*:2]].T.Y.[am]}$$$$V2.0) | 102.7 | 0.116 | −6.6 |  |  |  |  |  |  |  |  |  |  |  |  | 93.4 | 110 |  |  | 
